Test results as given in patent publication US8895605B2, “Pyrrolidine-substituted flavones as radio-sensitizers for use in the treatment of cancer” (Piramal Enterprises Limited, priority 2009, dated 2014).
Like-named read-outs stand apart in the source and are kept apart here.

Tested on: FaDu (human head and neck cancer) cells
Test: In-vitro MTS assay (cytotoxicity, Compound A alone and with radiation)
Type: cell-based
Conditions: for cytotoxicity at 0.7 µM / cytotoxicity at 1 µM / cytotoxicity at 2 µM: FaDu, no radiation; for cytotoxicity at 0.7 µM: 0.7 μM Compound A (IC30) alone; for cytotoxicity at 1 µM: 1 μM Compound A (IC50) alone; for cytotoxicity at 2 µM: 2 μM Compound A (IC70) alone; for Combination index (CI): CompuSyn
From the text: The assay has been carried out according to the method described in Molecular Cancer Therapeutics, 2007, 6(9); the disclosure of which is incorporated by reference for the teaching of the assay. MTS (Promega, Cat #G1111) is a tetrazolium compound ((3-(4,5-dimethylthiazol-2-yl)-5-(3-carboxymethoxyphenyl)-2-(4-sulphophenyl)-2H-tetrazolium, inner salt; MTS) for use in colorimetric assays for determining the number of viable cells in proliferation, cytotoxicity or chemosensitivity assays. This is used with an electron coupling reagent PMS (Phenazine methosulfate). MTS is bioreduced by cells into a formazan that is soluble in tissue culture medium. The absorbance of the formazan at 490 nm can be measured directly from 96 well assay plates without additional processing. Dehydrogenase enzymes found in metabolically active cells accomplish the conversion of MTS into the aqueous soluble formazan. The quantity of formazan product as measured at 490 nm absorbance is directly proportional to the number of living cells in culture. Before testing the effect of Compound A on radiosensitivity of FaDu (human head and neck cancer, ATCC, USA) cells, the dose dependent cytotoxicity of Compound A alone was determined using MTS assay. Tumor cells were incubated in the presence of various concentrations of Compound A for 48 h and subjected to MTS assay. […] The Fa-Du (human head and neck cancer, ATCC, USA) cells were seeded at density of 1500 cells/well in 180 μL of MEM (minimum essential medium) in tissue culture grade 96-well plate and allowed to grow for 24 h in humidified 5% CO2 incubator at 37±1° C. Three identical groups of cells were made. After a time interval of 24 h after seeding, different wells of the first and second group of cells were irradiated at room temperature at dose of 2, 4, 6, 8 and 10 Gy respectively. The second group was further treated 24 h after irradiation (i.e. on the third day of the experiment) with IC30 concentration of Compound A. The third group was treated on the third day of the experiment, with IC30 concentration of Compound A alone. In order to obtain IC30 concentration (0.7 μM) of Compound A in any well, 20 μL of a stock solution of concentration 10×IC30, (i.e. 7 μM) was added to the well (dissolved first in DMSO and then in cell medium, final DMSO concentration should not exceed 0.5%) and diluted to 200 μL with MEM. The wells were incubated for 48 h and 96 h respectively, in humidified 5% CO2 incubator at 37±1° C. After completion of 48 h and 96 h respectively, the medium was removed from all wells and fresh MEM was added and the plates were incubated further for additional 4-6 days or for total of 8-10 days from the start of the experiment. At the end of the experiment, the medium was removed from all wells and 20 μL of MTS (2 mg/ml in phosphate buffer saline, pH 6-6.5 and filter sterilized) and 1 μL of PMS (3 mM in PBS, pH 7.3 and filter sterilized) was added per well along with the cell medium to adjust the total volume to 200 μL/well. The plate was incubated for 2-4 h in humidified 5% CO2 incubator at 37±1° C. The plate was read at 490 nm on Spectrophotometer (SpectraMax, Molecular Devices, USA), and the percentage cytotoxicity using SoftMax, software for SpectraMax was calculated. The above experiment was repeated using IC50 and IC70 concentrations of Compound A. The enhancement in radiation effects in FaDu cell line as evaluated using the CompuSyn software by Chou and Talalay, described in Pharmacological Reviews, 2006, 58, 621-681, which is incorporated herewith by reference. Combination index (CI) is used to evaluate if a combination is additive, synergistic or antagonistic. CI<1 is synergistic, CI=1 is additive and CI>1 is antagonistic. For example, at a treatment of 48 h with a concentration of IC70 of Compound A, the combination was synergistic (CI=0.7) at all the doses of radiation. The combination index in both the cases ie. […]

[1] = Compound A alone, 48 h incubation, FaDu cells
[2] = Homo sapiens, 48 h, read-out: % cytotoxicity 48 h after Compound A treatment
[3] = Homo sapiens, 96 h, read-out: % cytotoxicity 96 h after Compound A treatment

## CN1CC[C@@H](c2c(O)cc(O)c3c(=O)cc(-c4ccccc4Cl)oc23)[C@@H]1CO.Cl [Compound A, (+)-trans-2-(2-Chlorophenyl)-5,7-dihydroxy-8-(2-hydroxymethyl-1-methyl-pyrrolidin-3-yl)-chromen-4-one hydrochloride]
2 Gy radiation, then 0.7 μM Compound A (IC30) 24 h after radiation, 48 h
  % cytotoxicity 48 h after Compound A treatment: 23%
2 Gy radiation, then 0.7 μM Compound A (IC30) 24 h after radiation, 96 h
  % cytotoxicity 96 h after Compound A treatment: 15%
2 Gy radiation, then 1 μM Compound A (IC50) 24 h after radiation, 48 h
  % cytotoxicity 48 h after Compound A treatment: 35%
2 Gy radiation, then 2 μM Compound A (IC70) 24 h after radiation, 48 h
  % cytotoxicity 48 h after Compound A treatment: 79%
2 Gy radiation, then 2 μM Compound A (IC70) 24 h after radiation, 96 h
  % cytotoxicity 96 h after Compound A treatment: 98%
4 Gy radiation, then 0.7 μM Compound A (IC30) 24 h after radiation, 48 h
  % cytotoxicity 48 h after Compound A treatment: 35%
4 Gy radiation, then 0.7 μM Compound A (IC30) 24 h after radiation, 96 h
  % cytotoxicity 96 h after Compound A treatment: 31%
4 Gy radiation, then 1 μM Compound A (IC50) 24 h after radiation, 48 h
  % cytotoxicity 48 h after Compound A treatment: 50%
4 Gy radiation, then 1 μM Compound A (IC50) 24 h after radiation, 96 h
  % cytotoxicity 96 h after Compound A treatment: 37%
4 Gy radiation, then 2 μM Compound A (IC70) 24 h after radiation, 48 h
  % cytotoxicity 48 h after Compound A treatment: 86%
4 Gy radiation, then 2 μM Compound A (IC70) 24 h after radiation, 96 h
  % cytotoxicity 96 h after Compound A treatment: 96%
6 Gy radiation, then 0.7 μM Compound A (IC30) 24 h after radiation, 48 h
  % cytotoxicity 48 h after Compound A treatment: 64%
6 Gy radiation, then 0.7 μM Compound A (IC30) 24 h after radiation, 96 h
  % cytotoxicity 96 h after Compound A treatment: 60%
6 Gy radiation, then 1 μM Compound A (IC50) 24 h after radiation, 48 h
  % cytotoxicity 48 h after Compound A treatment: 73%
6 Gy radiation, then 1 μM Compound A (IC50) 24 h after radiation, 96 h
  % cytotoxicity 96 h after Compound A treatment: 77%
6 Gy radiation, then 2 μM Compound A (IC70) 24 h after radiation, 48 h
  % cytotoxicity 48 h after Compound A treatment: 89%
6 Gy radiation, then 2 μM Compound A (IC70) 24 h after radiation, 96 h
  % cytotoxicity 96 h after Compound A treatment: 96%
8 Gy radiation, then 0.7 μM Compound A (IC30) 24 h after radiation, 48 h
  % cytotoxicity 48 h after Compound A treatment: 79%
8 Gy radiation, then 0.7 μM Compound A (IC30) 24 h after radiation, 96 h
  % cytotoxicity 96 h after Compound A treatment: 69%
8 Gy radiation, then 1 μM Compound A (IC50) 24 h after radiation, 48 h
  % cytotoxicity 48 h after Compound A treatment: 85%
8 Gy radiation, then 1 μM Compound A (IC50) 24 h after radiation, 96 h
  % cytotoxicity 96 h after Compound A treatment: 84%
8 Gy radiation, then 2 μM Compound A (IC70) 24 h after radiation, 48 h
  % cytotoxicity 48 h after Compound A treatment: 91%
8 Gy radiation, then 2 μM Compound A (IC70) 24 h after radiation, 96 h
  % cytotoxicity 96 h after Compound A treatment: 95%
10 Gy radiation, then 0.7 μM Compound A (IC30) 24 h after radiation, 48 h
  % cytotoxicity 48 h after Compound A treatment: 80%
10 Gy radiation, then 0.7 μM Compound A (IC30) 24 h after radiation, 96 h
  % cytotoxicity 96 h after Compound A treatment: 85%
10 Gy radiation, then 1 μM Compound A (IC50) 24 h after radiation, 48 h
  % cytotoxicity 48 h after Compound A treatment: 86%
10 Gy radiation, then 1 μM Compound A (IC50) 24 h after radiation, 96 h
  % cytotoxicity 96 h after Compound A treatment: 90%
10 Gy radiation, then 2 μM Compound A (IC70) 24 h after radiation, 48 h
  % cytotoxicity 48 h after Compound A treatment: 91%
10 Gy radiation, then 2 μM Compound A (IC70) 24 h after radiation, 96 h
  % cytotoxicity 96 h after Compound A treatment: 94%
[1]
  IC30: 700 nM
  IC70: 2000 nM
[2]
  cytotoxicity at 0.7 µM: 8%
  cytotoxicity at 1 µM: 20%
  cytotoxicity at 2 µM: 66%
[3]
  cytotoxicity at 0.7 µM: 4%
  cytotoxicity at 1 µM: 25%
  cytotoxicity at 2 µM: 83%
Homo sapiens, Compound A alone, 48 h incubation, FaDu cells
  IC50: 1000 nM
Radiation 6, 8 and 10 Gy followed by Compound A at IC30 for 48 h
  Enhancement in radiation effects (combination class): synergistic (CI<1 is synergistic)
Radiation 6, 8 and 10 Gy followed by Compound A at IC50 for 48 h
  Enhancement in radiation effects (combination class): synergistic (CI<1 is synergistic)
Radiation + Compound A at IC30, 96 h treatment, all doses of radiation
  Combination index (CI): 1
Radiation + Compound A at IC50, 96 h treatment, all doses of radiation
  Combination index (CI): 1
Radiation + Compound A at IC70, 48 h treatment, all doses of radiation
  Combination index (CI): 0.7
Radiation + Compound A at IC70, 96 h treatment, at 2, 4 and 6 Gy
  Combination index (CI): < 1
